Holding throughout (assay type): cell-based
In one experiment the test system is Huh7. Nature of the experiment: CCK-8 tumor cell proliferation, Huh7. The settings on record: Homo sapiens, Huh-7, Huh7 cells, 72 hours. As to the method: (§1) Tumor cells (see Table 2 to Table 5) were inoculated in 96-well plates in complete culture medium (2000-3000 cells/well). After overnight incubation, the compounds with different concentrations (0.000508 μM-10 μM) were used to treat the cells separately for 72 hours. CCK-8 (Cell Counting Kit 8, Dojindo Laboratories, Kumamoto, Japan) experiment was used to evaluate cell proliferation. GraphPad Prism 5.0 software (La Jolla, CA) was used to calculate the half-maximal inhibitory concentration (IC50) values by fitting the concentration response curve. Each IC50 value was represented as an average value±SD.

In the next experiment the test system is BT-549. Nature of the experiment: CCK-8 tumor cell proliferation, BT-549. As to conditions: Homo sapiens, BT-549 cells, 72 hours. As to the method:
as §1

The test system of another experiment is H1975. Nature of the experiment: CCK-8 tumor cell proliferation, H1975. As to conditions: Homo sapiens, NCI-H1975, H1975 cells, 72 hours. The method in brief:
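CCK-8 readout after 72 h compound exposure (0.000508 μM-10 μM) of cells plated overnight at 2000-3000 cells/well. IC50 from concentration-response curve fit; mean±SD.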

For the next experiment, the system named is PC-9. Nature of the experiment: CCK-8 tumor cell proliferation, PC-9. The settings on record: Homo sapiens, PC-9 cells, 72 hours. As to the method: as §1
Another experiment deals with H1299. Nature of the experiment: CCK-8 tumor cell proliferation, H1299. The settings on record: Homo sapiens, NCI-H1299, H1299 cells, 72 hours. As to the method: as §1
The next experiment has as its target T1, AKT1 (Homo sapiens, UniProt P31749).
T1 construct: AKT1, AKT2, and AKT3 proteins in H1975-OR cells; endogenous in cells; host or cells: H1975-OR (osimertinib-resistant H1975)
Nature of the experiment: Western Blot, degradation of AKT1 protein in H1975-OR cells. As to conditions: 1000 nM, 24 hours, maximum degradation rate. In short, it runs like this:
(§2)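 H1975-OR cells are Osimertinib-resistant H1975, adapted stepwise from 50 nM to 3 μM Osimertinib. Cells were treated with compound for 24 h, lysed, and immunoblotted with ECL detection. Band grayscale density was quantified.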
Background: In western blotting, separated proteins are transferred to a membrane and probed.

Another experiment concerns A431. Nature of the experiment: CCK-8 tumor cell proliferation, A431. As to conditions: Homo sapiens, A-431, A431 cells, 72 hours. As to the method: as §1
Another experiment has as its target AKT3 (Homo sapiens, UniProt Q9Y243). Nature of the experiment: Western Blot, degradation of AKT3 protein in H1975-OR cells. Set-up: endogenous in cells; host or cells: H1975-OR (osimertinib-resistant H1975). The settings on record: 1000 nM, 24 hours, maximum degradation rate. The method in brief: as §2
The next experiment relates to HCC827. Nature of the experiment: CCK-8 tumor cell proliferation, HCC827. The settings on record: Homo sapiens, HCC827 cells, 72 hours. As to the method: as §1
A further experiment deals with H1975OR. Nature of the experiment: CCK-8 tumor cell proliferation, H1975OR. As to conditions: H1975OR cells (Osimertinib resistant), 72 hours. The method in brief:
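Osimertinib-resistant H1975 cells, selected by raising Osimertinib stepwise from 50 nM to 3 μM, were treated for 72 h with compound at 0.000508–10 μM. Proliferation was read by CCK-8, and IC50 came from fitting the concentration–response curve, given as mean ± SD.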

A further experiment deals with T2, AKT2 (Homo sapiens, UniProt P31751).
T2 construct: AKT1, AKT2, and AKT3 proteins in H1975-OR cells; endogenous in cells; host or cells: H1975-OR (osimertinib-resistant H1975)
Nature of the experiment: Western Blot, degradation of AKT2 protein in H1975-OR cells. As to conditions: 1000 nM, 24 hours, maximum degradation rate. The method in brief:
as §2

Each structure is given as a SMILES string.

By IC50 is commonly meant the concentration that inhibits the measured activity by half. Higher therefore signals weaker potency in that assay. Usually Dmax stands for the largest share of the target that was removed.

T1 sequence (P31749 whole entry): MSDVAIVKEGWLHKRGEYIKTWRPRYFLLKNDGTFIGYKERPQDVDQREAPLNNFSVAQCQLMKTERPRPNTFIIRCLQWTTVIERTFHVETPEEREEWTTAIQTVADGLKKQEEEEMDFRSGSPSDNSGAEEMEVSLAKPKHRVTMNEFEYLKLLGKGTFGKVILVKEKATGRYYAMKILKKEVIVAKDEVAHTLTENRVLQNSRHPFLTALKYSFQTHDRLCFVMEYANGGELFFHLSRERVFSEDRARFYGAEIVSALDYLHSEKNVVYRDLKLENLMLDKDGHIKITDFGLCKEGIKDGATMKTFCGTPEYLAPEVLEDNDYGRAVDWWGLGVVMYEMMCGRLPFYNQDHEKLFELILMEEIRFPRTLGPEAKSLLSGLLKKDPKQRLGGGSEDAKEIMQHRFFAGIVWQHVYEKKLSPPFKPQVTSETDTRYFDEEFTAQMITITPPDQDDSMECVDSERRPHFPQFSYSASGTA
T2 sequence (P31751 whole entry): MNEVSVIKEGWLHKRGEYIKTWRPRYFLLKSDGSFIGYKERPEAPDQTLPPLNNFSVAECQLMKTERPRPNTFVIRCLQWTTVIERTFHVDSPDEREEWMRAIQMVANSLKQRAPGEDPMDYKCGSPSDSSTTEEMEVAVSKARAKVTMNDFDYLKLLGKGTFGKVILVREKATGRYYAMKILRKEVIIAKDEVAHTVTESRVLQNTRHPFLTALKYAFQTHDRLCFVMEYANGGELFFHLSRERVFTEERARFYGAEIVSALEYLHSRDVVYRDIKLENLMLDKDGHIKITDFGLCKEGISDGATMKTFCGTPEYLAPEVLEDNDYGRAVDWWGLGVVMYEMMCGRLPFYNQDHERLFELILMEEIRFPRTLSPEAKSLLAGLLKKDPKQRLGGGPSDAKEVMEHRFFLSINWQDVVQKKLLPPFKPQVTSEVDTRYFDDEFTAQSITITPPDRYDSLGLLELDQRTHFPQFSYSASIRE
Chain of AKT3 (Q9Y243 whole entry): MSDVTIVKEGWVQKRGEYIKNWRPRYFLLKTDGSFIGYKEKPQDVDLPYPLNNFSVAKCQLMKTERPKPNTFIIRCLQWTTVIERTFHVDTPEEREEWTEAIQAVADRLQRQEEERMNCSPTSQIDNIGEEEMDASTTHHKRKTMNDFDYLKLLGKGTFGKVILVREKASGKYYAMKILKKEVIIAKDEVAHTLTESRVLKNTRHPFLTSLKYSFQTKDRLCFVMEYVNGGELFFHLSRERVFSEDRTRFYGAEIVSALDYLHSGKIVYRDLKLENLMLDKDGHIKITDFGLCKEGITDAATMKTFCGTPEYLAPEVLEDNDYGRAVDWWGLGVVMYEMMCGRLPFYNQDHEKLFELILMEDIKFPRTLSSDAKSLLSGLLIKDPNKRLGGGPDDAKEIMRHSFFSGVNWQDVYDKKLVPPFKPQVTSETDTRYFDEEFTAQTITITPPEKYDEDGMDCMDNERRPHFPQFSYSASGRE

In the case of `COc1nc(N2CCN(C(=O)C34CC5CC(CC(C5)C3)C4)CC2)ccc1Nc1ncc2c(C)cc(=O)n(-c3cccc(NC(=O)C4CC4)c3)c2n1` [ZX-HYT-69, N-(3-(2-((6-(4-((3R, 5R, 7R)-adamantan-1-carbonyl)piperazin-1-yl)-2-methoxypyridin-3-yl)amino)-5-methyl-7-oxypyridino [2,3-d]pyrimidin-8 (7H)-yl)phenyl) cyclopropane formamide], the figures for the IC50 with Huh7 and in the experiment with BT-549 were more than 10 µM and 3 µM, respectively.

For the compound `COc1cc(N2CCN(C(=O)CC34CC5CC(CC(C5)C3)C4)CC2)ncc1Nc1ncc2c(C)cc(=O)n(-c3cccc(NC(=O)C4CC4)c3)c2n1` [ZX-HYT-70, N-(3-(2-((6-(4-(2-((3R, 5R, 7R)-adamantan-1-yl)acetyl)piperazin-1-yl)-4-methoxypyridin-3-yl))amino)-5-methyl-7-oxypyridino [2,3-d]pyrimidin-8 (7H)-yl) phenyl) cyclopropane formamide], the IC50 in the experiment on Huh7 was more than 10 µM; in the experiment with BT-549, 1.02 µM.

As to `C=CC(=O)Nc1cccc(-n2c(=O)cc(C)c3cnc(Nc4ccc(N5CCN(CCOCCOCCNC(=O)CC67CC8CC(CC(C8)C6)C7)CC5)cc4OC)nc32)c1` [ZX-HYT-01], the IC50 is 3.27 ± 0.598 µM with H1975; 1.57 ± 0.258 µM with PC-9; 10.4 ± 1.72 µM in the experiment on H1299; 0.541 ± 0.0589 µM with A431; 0.141 ± 0.0372 µM with HCC827; 2.01 ± 0.444 µM with H1975OR. For the same compound, the Dmax at 1 µM at AKT1 is 59.2%; at AKT3, 67.6%; on AKT2, 27.2%.

Regarding `COc1nc(N2CCN(C(=O)NC34CC5CC(CC(C5)C3)C4)CC2)ccc1Nc1ncc2c(C)cc(=O)n(-c3cccc(NC(=O)C4CC4)c3)c2n1` [ZX-HYT-68, N-((3S, 5S, 7S)-adamantan-1-yl)-4-(5-((8-(3-(cyclopropaneformamido)phenyl)-5-methyl-7-oxy-7,8-dihydropyridino [2,3-d]pyrimidin-2-yl)amino)-6-methoxypyridin-2-yl) piperazin-1-formamide], the figures for the IC50 in the experiment on Huh7 and in the experiment with BT-549 were more than 10 µM and 0.0386 µM, respectively.

Turning to `COc1cc(N2CCN(CCCCCCCCCCCCNC(=O)CC34CC5CC(CC(C5)C3)C4)CC2)ccc1Nc1ncc2c(C)cc(=O)n(-c3cccc(NC(=O)C(C)(C)C)c3)c2n1` [ZX-HYT-12], the IC50 in the experiment on H1975 is 0.554 ± 0.213 µM; in the experiment with PC-9, 0.466 ± 0.0241 µM; with H1299 it was 2.17 ± 0.419 µM; with A431 it was 0.155 ± 0.0075 µM; with HCC827 it was 0.549 ± 0.247 µM; in the experiment with H1975OR, 0.136 ± 0.0165 µM. Further, the Dmax at 1 µM came out at 56% on AKT1, 75.4% at AKT3 and 0% at AKT2.

Take `COc1cc(N2CCN(CCCCCCCCCCCCNC(=O)CC34CC5CC(CC(C5)C3)C4)CC2)ccc1Nc1ncc2c(C)cc(=O)n(-c3cccc(NC(C)=O)c3)c2n1` [ZX-HYT-09, N-(12-(4-(4-((8-(3-acetylaminophenyl)-5-methyl-7-oxy-7,8-dihydropyridino [2,3-d]pyrimidin-2-yl]amino)-3-methoxyphenyl)piperazin-1-yl)dodecyl)-2-((3R, 5R, 7R)-adamantan-1-yl) acetamide]: the IC50 in the experiment with H1975 came to 0.119 ± 0.0112 µM; with PC-9, 0.215 ± 0.0636 µM; in the experiment with H1299, 0.624 ± 0.0448 µM; in the experiment with A431, 0.0106 ± 0.002 µM; in the experiment on HCC827 it was 0.134 ± 0.064 µM; with H1975OR it was 0.0236 ± 0.00351 µM. For the same compound, the results for the Dmax at 1 µM on AKT1, on AKT3 and at AKT2 were 0%, 75.7% and 0%, respectively.

As for `COc1cc(N2CCN(C(=O)C34CC5CC(CC(C5)C3)C4)CC2)ncc1Nc1ncc2c(C)cc(=O)n(-c3cccc(NC(=O)C4CC4)c3)c2n1` [ZX-HYT-72, N-(3-(2-((6-(4-((3R, 5R, 7R)-adamantan-1-carbonyl)piperazin-1-yl)-4-methoxypyridin-3-yl)amino)-5-methyl-7-oxypyridino [2,3-d]pyrimidin-8 (7H)-yl)phenyl) cyclopropane formamide], the results for the IC50 in the experiment on Huh7 and in the experiment on BT-549 were 3 µM and 0.626 µM, respectively.

As to `COc1cc(N2CCC(C(=O)NCC34CC5CC(CC(C5)C3)C4)CC2)ccc1Nc1ncc2c(C)cc(=O)n(-c3cccc(NC(=O)C4CC4)c3)c2n1` [ZX-HYT-89, N-(((3R, 5R, 7R)-adamantan-1-yl)methyl)-1-(4-((8-(3-(cyclopropaneformamido)phenyl)-5-methyl-7-oxy-7,8-dihydropyridino [2,3-d]pyrimidin-2-yl)amino)-3-methoxyphenyl) piperidin-4-formamide], the concentration for half-maximal inhibition (IC50) amounted to 0.12 µM with Huh7 and 0.0267 µM in the experiment on BT-549.

In the case of `C=CC(=O)Nc1cccc(-n2c(=O)cc(C)c3cnc(Nc4ccc(N5CCN(CCCCCCCCCCNC(=O)CC67CC8CC(CC(C8)C6)C7)CC5)cc4OC)nc32)c1` [ZX-HYT-04, N-(3-(2-((4-(4-(10-(2-(((3R, 5R, 7R)-adamantan-1-yl)acetylamino)decyl)piperazin-1-yl)-2-methoxyphenyl)amino)-5-methyl-7-oxypyridino [2,3-d]pyrimidin-8 (7H)-yl)phenyl)acrylamide], the IC50 amounted to 1.77 ± 0.187 µM in the experiment on H1975; 0.0181 ± 0.00105 µM in the experiment on PC-9; 0.305 ± 0.166 µM in the experiment on H1299; 0.0102 ± 0.002 µM in the experiment on A431; 0.0555 ± 0.0327 µM in the experiment on HCC827; 0.083 ± 0.019 µM in the experiment on H1975OR. Besides, the figures for the Dmax at 1 µM on AKT1, at AKT3 and at AKT2 were 0%, 26.6% and 0%, respectively.

As for `COc1cc(N2CCN(C(=O)NC34CC5CC(CC(C5)C3)C4)CC2)ncc1Nc1ncc2c(C)cc(=O)n(-c3cccc(NC(=O)C4CC4)c3)c2n1` [ZX-HYT-71, N-((3S, 5S, 7S)-adamantan-1-yl)-4-(5-((8-(3-(cyclopropaneformamido)phenyl)-5-methyl-7-oxy-7,8-dihydropyridino [2,3-d]pyrimidin-2-yl)amino)-4-methoxypyridin-2-yl) piperazin-1-formamide], the IC50 with Huh7 was more than 10 µM; in the experiment on BT-549, 1.25 µM.

For `C=CC(=O)Nc1cccc(-n2c(=O)cc(C)c3cnc(Nc4ccc(N5CCN(CCCCCCCCCCCCCCNC(=O)CC67CC8CC(CC(C8)C6)C7)CC5)cc4OC)nc32)c1` [ZX-HYT-06, N-(3-(2-((4-(4-(14-(2-((3R, 5R, 7R)-adamantan-1-yl)acetylamino)tetradecyl)piperazin-1-yl)-2-methoxyphenyl)amino)-5-methyl-7-oxypyridino [2,3-d]pyrimidin-8 (7H)-yl)phenyl) acrylamide], the IC50 with H1975 was 0.837 ± 0.11 µM; in the experiment on PC-9, 0.0732 ± 0.00431 µM; in the experiment with H1299, 0.163 ± 0.0134 µM; with A431 it was 0.26 ± 0.047 µM; in the experiment with HCC827 it was 0.163 ± 0.0134 µM; with H1975OR, 0.125 ± 0.012 µM. The figures for the Dmax at 1 µM on AKT1, on AKT3 and at AKT2 were 0%, 62.9% and 47%, respectively.

In the case of `COc1cc(N2CCN(CCCCCCCCCCCCNC(=O)CC34CC5CC(CC(C5)C3)C4)CC2)ccc1Nc1ncc2c(C)cc(=O)n(-c3cccc(NC(=O)C(C)C)c3)c2n1` [ZX-HYT-10, N-(3-(2-((4-(4-(12-(2-(((3R, 5R, 7R)-adamantan-1-yl)acetylamino)dodecyl)piperazin-1-yl)-2-methoxyphenyl)amino)-5-methyl-7-oxypyridino [2,3-d]pyrimidin-8 (7H)-yl)phenyl)isobutylamide], the IC50 with H1975 was 0.142 ± 0.0494 µM; in the experiment with PC-9, 0.126 ± 0.0177 µM; with H1299, 1.81 ± 0.395 µM; in the experiment on A431, 0.0517 µM; in the experiment on HCC827 it was 0.309 ± 0.139 µM; with H1975OR, 0.0196 ± 0.00141 µM. For the same compound, the greatest degradation seen (Dmax) at 1 µM on AKT1 is 0%; at AKT3, 57.1%; at AKT2, 25.3%.
